Reference: patent US9321760B2 (Merck Patent GmbH, priority 2011, dated 2016)

Each compound was assayed against P70S6K (T412E mutant) (Homo sapiens (Human), UniProt P23443, T412E) (assay: P70S6K enzyme assay). Conditions: 3 nM P70S6K T412E mutant, 24 μM ATP, 1 μM FITC-AHA-AKRRRLSSLRA-OH substrate peptide, 90 min at 25° C.
Assay type: biochemical
Method in brief: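 P70S6K T412E mutant (3 nM) with 24 μM ATP and 1 μM FITC-labelled S6-derived peptide in Hepes pH 7.5, MgCl2, DTT, Brij buffer; 90 min at 25° C, stopped with EDTA. Phosphorylated product and substrate peptides separated by microfluidic mobility shift; IC50 values derived.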

P70S6K (T412E mutant), sequence (P23443 whole entry T412E): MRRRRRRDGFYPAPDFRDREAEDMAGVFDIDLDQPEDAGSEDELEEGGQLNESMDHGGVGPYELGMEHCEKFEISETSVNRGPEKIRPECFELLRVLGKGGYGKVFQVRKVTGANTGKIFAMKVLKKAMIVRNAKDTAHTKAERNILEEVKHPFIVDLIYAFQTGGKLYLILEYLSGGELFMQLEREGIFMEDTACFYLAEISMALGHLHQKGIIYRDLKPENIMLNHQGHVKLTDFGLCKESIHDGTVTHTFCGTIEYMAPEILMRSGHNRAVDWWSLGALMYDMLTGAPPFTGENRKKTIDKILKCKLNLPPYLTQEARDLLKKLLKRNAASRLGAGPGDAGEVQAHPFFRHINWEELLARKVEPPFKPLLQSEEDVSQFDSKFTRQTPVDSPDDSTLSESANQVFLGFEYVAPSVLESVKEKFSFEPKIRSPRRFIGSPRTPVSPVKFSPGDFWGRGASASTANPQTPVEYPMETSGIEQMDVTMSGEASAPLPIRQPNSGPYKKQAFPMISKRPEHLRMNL

Structure (SMILES) | IC50
Nc1ncnc(N2CCN(C(CN3CCC3)c3ccc(F)c(OC(F)(F)F)c3)CC2)c1-c1cn[nH]c1 (stereo not shown) [Example 114, 6-{4-[2-Azetidin-1-yl-1-(4-fluoro-3-trifluoromethoxy-phenyl)-ethyl]-piperazin-1-yl}-5-(1H-pyrazol-4-yl)-pyrimidin-4-ylamine] | 3300 nM
Nc1ncnc(N2CCN(C(CN3CCC3)c3ccc4c(c3)CCCC4)CC2)c1-c1ccc(N2CCNCC2)nc1 (stereo not shown) [Example 115, 6-{4-[2-Azetidin-1-yl-1-(5,6,7,8-tetrahydro-naphthalen-2-yl)-ethyl]-piperazin-1-yl}-5-(6-piperazin-1-yl-pyridin-3-yl)-pyrimidin-4-ylamine] | > 100000 nM
Nc1ncnc(N2CCN(C(CN3CCC3)c3ccc(-n4ccnc4)cc3)CC2)c1-c1ccc(F)cc1 (stereo not shown) [Example 116, 6-{4-[2-Azetidin-1-yl-1-(4-imidazol-1-yl-phenyl)-ethyl]-piperazin-1-yl}-5-(4-fluoro-phenyl)-pyrimidin-4-ylamine] | 290 nM
CCOC(=O)Cn1cc(-c2c(N)ncnc2N2CCN(C(CN3CCC3)c3ccc(Cl)c(Cl)c3)CC2)cn1 (stereo not shown) [Example 117, [4-(4-Amino-6-{4-[2-azetidin-1-yl-1-(3,4-dichloro-phenyl)-ethyl]-piperazin-1-yl}-pyrimidin-5-yl)-pyrazol-1-yl]-acetic acid ethyl ester] | 24000 nM
Nc1ncnc(N2CCN(C(CN3CCC3)c3ccc4[nH]c(=O)sc4c3)CC2)c1-c1ccc(F)cc1 (stereo not shown) [Example 118, 6-(1-{4-[6-Amino-5-(4-fluoro-phenyl)-pyrimidin-4-yl]-piperazin-1-yl}-2-azetidin-1-yl-ethyl)-3H-benzothiazol-2-one] | 140 nM
CCOC(=O)Cn1cc(-c2c(N)ncnc2N2CCN(C(CN3CCC3)c3ccc4c(c3)CCCC4)CC2)cn1 (stereo not shown) [Example 119, [4-(4-Amino-6-{4-[2-azetidin-1-yl-1-(5,6,7,8-tetrahydro-naphthalen-2-yl)-ethyl]-piperazin-1-yl}-pyrimidin-5-yl)-pyrazol-1-yl]-acetic acid ethyl ester] | 22000 nM
Nc1ncnc(N2CCN(C(CN3CCC3)c3ccc(C(F)(F)F)cc3F)CC2)c1-c1cn[nH]c1 (stereo not shown) [Example 120, 6-{4-[2-Azetidin-1-yl-1-(2-fluoro-4-trifluoromethyl-phenyl)-ethyl]-piperazin-1-yl}-5-(1H-pyrazol-4-yl)-pyrimidin-4-ylamine] | 1100 nM
Nc1ncnc(N2CCN(C(CN3CCC3)c3ccc(Cl)c(F)c3)CC2)c1-c1cn[nH]c1 (stereo not shown) [Example 121, 6-{4-[2-Azetidin-1-yl-1-(4-chloro-3-fluoro-phenyl)-ethyl]-piperazin-1-yl}-5-(1H-pyrazol-4-yl)-pyrimidin-4-ylamine] | 900 nM
Nc1ncnc(N2CCN(C(CN3CCC3)c3ccc4c(c3)CCCC4)CC2)c1-c1cn[nH]c1 (stereo not shown) [Example 122, 6-{4-[2-Azetidin-1-yl-1-(5,6,7,8-tetrahydro-naphthalen-2-yl)-ethyl]-piperazin-1-yl}-5-(1H-pyrazol-4-yl)-pyrimidin-4-ylamine] | 950 nM
Nc1ncnc(N2CCN(C(CN3CCC3)c3ccc4c(c3)CCCC4)CC2)c1-c1ccc(F)cc1 (stereo not shown) [Example 123, 6-{4-[2-Azetidin-1-yl-1-(5,6,7,8-tetrahydro-naphthalen-2-yl)-ethyl]-piperazin-1-yl}-5-(4-fluoro-phenyl)-pyrimidin-4-ylamine] | 360 nM
Nc1ncnc(N2CCN(C(CN3CCC3)c3cccc(F)c3F)CC2)c1-c1cn[nH]c1 (stereo not shown) [Example 124, 6-{4-[2-Azetidin-1-yl-1-(2,3-difluoro-phenyl)-ethyl]-piperazin-1-yl}-5-(1H-pyrazol-4-yl)-pyrimidin-4-ylamine] | 3400 nM
N#Cc1cccc([C@@H](CN2CCC2)N2CCN(c3ncnc(N)c3-c3ccc(F)cc3)CC2)c1 [Example 125, 3-((S)-1-{4-[6-Amino-5-(4-fluoro-phenyl)-pyrimidin-4-yl]-piperazin-1-yl}-2-azetidin-1-yl-ethyl)-benzonitrile] | 1200 nM
Nc1ncnc(N2CCN(C(CN3CCC3)c3cccc(Cl)c3Cl)CC2)c1-c1cn[nH]c1 (stereo not shown) [Example 126, 6-{4-[2-Azetidin-1-yl-1-(2,3-dichloro-phenyl)-ethyl]-piperazin-1-yl}-5-(1H-pyrazol-4-yl)-pyrimidin-4-ylamine] | 390 nM
Nc1ncnc(N2CCN(C(CN3CCC3)c3ccc(C(F)(F)F)c(F)c3)CC2)c1-c1cn[nH]c1 (stereo not shown) [Example 127, 6-{4-[2-Azetidin-1-yl-1-(3-fluoro-4-trifluoromethyl-phenyl)-ethyl]-piperazin-1-yl}-5-(1H-pyrazol-4-yl)-pyrimidin-4-ylamine] | 550 nM
CS(=O)(=O)c1ccc(C(CN2CCC2)N2CCN(c3ncnc(N)c3-c3ccc(F)cc3)CC2)cc1 (stereo not shown) [Example 128, 6-{4-[2-Azetidin-1-yl-1-(4-methanesulfonyl-phenyl)-ethyl]-piperazin-1-yl}-5-(4-fluoro-phenyl)-pyrimidin-4-ylamine] | 280 nM
N#Cc1cccc([C@H](CN2CCC2)N2CCN(c3ncnc(N)c3-c3ccc(F)cc3)CC2)c1 [Example 129, 3-((R)-1-{4-[6-Amino-5-(4-fluoro-phenyl)-pyrimidin-4-yl]-piperazin-1-yl}-2-azetidin-1-yl-ethyl)-benzonitrile] | 610 nM
COC(=O)Cn1cc(-c2c(N)ncnc2N2CCN(C(CN3CCC3)c3cccc(C#N)c3)CC2)cn1 (stereo not shown) [Example 130, [4-(4-Amino-6-{4-[2-azetidin-1-yl-1-(3-cyano-phenyl)-ethyl]-piperazin-1-yl}-pyrimidin-5-yl)-pyrazol-1-yl]-acetic acid methyl ester] | > 100000 nM

Structure (SMILES) | IC50
Nc1ncnc(N2CCN(C(CN3CCC3)c3ccc(Cl)c(Cl)c3)CC2)c1-c1cn[nH]c1 (stereo not shown) [Example 131, 6-{4-[2-Azetidin-1-yl-1-(3,4-dichloro-phenyl)-ethyl]-piperazin-1-yl}-5-(1H-pyrazol-4-yl)-pyrimidin-4-ylamine] | 1500 nM
Nc1ncnc(N2CCN(C(CN3CCC3)c3ccc(Cl)c(C(F)(F)F)c3)CC2)c1-c1cn[nH]c1 (stereo not shown) [Example 132, 6-{4-[2-Azetidin-1-yl-1-(4-chloro-3-trifluoromethyl-phenyl)-ethyl]-piperazin-1-yl}-5-(1H-pyrazol-4-yl)-pyrimidin-4-ylamine] | 1400 nM
Nc1ncnc(N2CCN(C(CN3CCC3)c3ccc(Cl)c(Cl)c3)CC2)c1-c1ccc(N2CCNCC2)nc1 (stereo not shown) [Example 133, 6-{4-[2-Azetidin-1-yl-1-(3,4-dichloro-phenyl)-ethyl]-piperazin-1-yl}-5-(6-piperazin-1-yl-pyridin-3-yl)-pyrimidin-4-ylamine] | > 100000 nM
Nc1ncnc(N2CCN(C(CN3CCC3)c3cccc(C(F)(F)F)c3Cl)CC2)c1-c1cn[nH]c1 (stereo not shown) [Example 134, 6-{4-[2-Azetidin-1-yl-1-(2-chloro-3-trifluoromethyl-phenyl)-ethyl]-piperazin-1-yl}-5-(1H-pyrazol-4-yl)-pyrimidin-4-ylamine] | 300 nM
Nc1ncnc(N2CCN(C(CN3CCC3)c3ccc(F)c(Cl)c3)CC2)c1-c1cn[nH]c1 (stereo not shown) [Example 135, 6-{4-[2-Azetidin-1-yl-1-(3-chloro-4-fluoro-phenyl)-ethyl]-piperazin-1-yl}-5-(1H-pyrazol-4-yl)-pyrimidin-4-ylamine] | 3600 nM
Nc1ncnc(N2CCN(C(CN3CCC3)c3ccc(F)cc3Cl)CC2)c1-c1cn[nH]c1 (stereo not shown) [Example 137, 6-{4-[2-Azetidin-1-yl-1-(2-chloro-4-fluoro-phenyl)-ethyl]-piperazin-1-yl}-5-(1H-pyrazol-4-yl)-pyrimidin-4-ylamine] | 3100 nM
Nc1ncnc(N2CCC(C(O)c3ccc(Cl)cc3)CC2)c1-c1ccc(F)cc1 (stereo not shown) [Example 138] | 2.5 nM
Nc1ncnc(N2CCC(C(O)c3ccc(-c4ccc(F)cc4)cc3)CC2)c1-c1ccc(F)cc1 (stereo not shown) [Example 139] | 17 nM
Nc1ncnc(N2CCC(C(O)c3ccc(F)cc3)CC2)c1-c1ccc(F)cc1 (stereo not shown) [Example 140] | 4.6 nM
C=Cc1c(N)ncnc1N1CCC(C(O)c2ccc(F)cc2)CC1 (stereo not shown) [Example 141, 1-6-amino-5-(vinylpyrimidin-4-yl)piperidin-4-yl-4-(fluorophenyl)methanol] | 1000 nM
Nc1ncnc(N2CCC(C(NC3CCCC3)c3ccc(F)cc3)CC2)c1-c1ccc(F)cc1 (stereo not shown) [Example 145, 6-(4-((cyclopentylamino)(4-fluorophenyl)methyl)piperidin-1-yl)-5-(4-fluorophenyl)pyrimidin-4-amine] | 120 nM
Nc1ncnc(N2CCC(C(OCCN3CCCC3)c3ccc(F)cc3)CC2)c1-c1ccc(F)cc1 (stereo not shown) [Example 146, 5-(4-fluoropheny)6-(4-((4-fluorophenyl)(2-(pyrrolidin-1-yl)ethoxy)methyl)-piperidin-1-yl)pyrimidin-4-amine] | 11 nM
CN(C)CCOC(c1ccc(F)cc1)C1CCN(c2ncnc(N)c2-c2ccc(F)cc2)CC1 (stereo not shown) [Example 147, 5-(4-fluorophenyl)6-(4-((4-fluorophenyl)(2-(dimethlyamino)ethoxy)methyl)piperidin-1-yl)pyrimidin-4-amine] | 2 nM
Nc1ncnc(N2CCC(C(c3ccc(F)cc3)N3CCCC3)CC2)c1-c1ccc(F)cc1 (stereo not shown) [Example 148, 5-(4-fluoropheny)-6-(4-((4-fluorophenyl)(pyrrolidin-1-yl)methyl)piperidin-1-yl)pyrimidin-4-amine] | 250 nM
Nc1ncnc(N2CCC(C(c3ccc(F)cc3)N3CCC(F)(F)C3)CC2)c1-c1ccc(F)cc1 (stereo not shown) [Example 149, 5-(4-fluoropheny)-6-(4-((4-fluorophenyl)(3-difluoropyrrolidin-1-yl)methyl)piperidin-1-yl)pyrimidin-4-amine] | 460 nM
CN(C)CCNC(c1ccc(F)cc1)C1CCN(c2ncnc(N)c2-c2ccc(F)cc2)CC1 (stereo not shown) [Example 150, 1-(6-amino-5-(4-fluorophenyl)pyrimidin-4-yl)(4-((4-fluorophenyl))methyl)-dimethylethane-1,2-diamine] | 33 nM
Nc1ncnc(N2CCC(C(NCC3CCNCC3)c3ccc(F)cc3)CC2)c1-c1ccc(F)cc1 (stereo not shown) [Example 151] | 200 nM
